Data on 17 molecules can be found in patent EP3575310A1, “PHOSPHONATE DERIVATES OF BETULIN COMPOUNDS WITH ANTIVIRAL ACTIVITY, METHOD FOR THEIR PREPARATION AND THEIR APPLICATION” (Uniwersystet Slaski w Katowicach, priority 2018, dated 2019).

Where two headings read alike, the source gives them in different places. Where only a bound is given, the exact number is not on record here.

In data set [1] the test system is HIV-1 infected H9 lymphocytes. Particulars: cited from earlier work.
The test system of data set [2] is HIV. The note with it: cited from earlier work.
Data set [3] concerns HIV-1. The note with it: cited from earlier work.
The test system of data set [4] is HIV-1 (wild type, S1). The experiment in a line: microbe, parasite or virus in culture. The format is cell-based.
Protocol: Biological testing of compounds is based on the determination of their cytotoxicity, including determination of CC50 and CC90 (Cytotoxity Concentration) and the assessment of the ability to inhibit viral replication in cell cultures and the determination of IC50 and IC90 (Inhibitory Concentration). Cytotoxicity of compounds is assessed in cultures of established lymphoid CEMT4 cell lines using the MTT method. […] The cultures are run in triplicate for every concentration of the tested compounds. HIV replication inhibition by the studied compounds is assessed in cultures of established lymphoid CEMT4 cell lines. Cells are incubated for 24 hours in a medium (RPMI 10% FBS) supplemented with known concentrations of the tested preparations. The cells are then infected with a laboratory isolate of HIV-1 (wild type, S1). The cultures are prepared in triplicate for every concentration of the tested compound. […] HIV inhibiting ability is determined after 7 days of growing the culture by determining the viral p24 protein in the medium above the cells. […] Inhibition of replication is measured by reducing the amount of p24 protein in cultures enriched in test compounds with respect to the amount of p24 in a culture carried out in a standard medium. The amount of p24 viral protein is determined using an anti-p24 immunoenzymatic test. […]
Data set [5] deals with HIV-1. Particulars: inhibiting the HIV-1 replication; cited from earlier work.
Data set [6] is described as follows: Cytotoxicity in lymphoid CEMT4 cell cultures, MTT method. In kind it is cell-based. Particulars: human, CEMT4 cells, viability relative to control cultures. Here is the method: Biological testing of compounds is based on the determination of their cytotoxicity, including determination of CC50 and CC90 (Cytotoxity Concentration) and the assessment of the ability to inhibit viral replication in cell cultures and the determination of IC50 and IC90 (Inhibitory Concentration). Cytotoxicity of compounds is assessed in cultures of established lymphoid CEMT4 cell lines using the MTT method. […] The cultures are run in triplicate for every concentration of the tested compounds. HIV replication inhibition by the studied compounds is assessed in cultures of established lymphoid CEMT4 cell lines. Cells are incubated for 24 hours in a medium (RPMI 10% FBS) supplemented with known concentrations of the tested preparations. The cells are then infected with a laboratory isolate of HIV-1 (wild type, S1). The cultures are prepared in triplicate for every concentration of the tested compound. Cultures containing identical number of infected cells grown in a medium not containing the tested substances are used as a positive control (100% viral replication). HIV inhibiting ability is determined after 7 days of growing the culture by determining the viral p24 protein in the medium above the cells. The amount of the protein corresponds to the number of newly synthesized viruses. Inhibition of replication is measured by reducing the amount of p24 protein in cultures enriched in test compounds with respect to the amount of p24 in a culture carried out in a standard medium. The amount of p24 viral protein is determined using an anti-p24 immunoenzymatic test. The results are presented in the form of CC50, IC50 and TI (Therapeutic Index) values. Table 1. Results of determination of anti-HIV activity of synthesized compounds and of the reference compound, AZT
On the technique in general: Tetrazolium assays rely on reduction of a dye to a coloured formazan, in cell work by metabolically active cells.

What is called EC50 is the concentration at which the effect is half-maximal. Consider “3-O-(3,3'-dimethylsuccinyl)betulinic acid [Item 3]”, for which the half-maximal effective concentration (EC50) in data set [1] was 0.0035 µM.

Regarding `C=C(C)[C@@H]1CC[C@]2(COC(=O)CC(C)(C)CC(=O)O)CC[C@]3(C)[C@H](CC[C@@H]4[C@@]5(C)CC[C@H](OC(=O)CC(C)(C)CC(=O)O)C(C)(C)[C@@H]5CC[C@]43C)[C@@H]12` [3,28-di-O-(3',3'-dimethylglutaryl)betulin], the EC50 in data set [2] was 0.00066 µM.

As to `C=C(C)[C@@H]1CC[C@]2(COC(=O)C(C)(C)CC(=O)O)CC[C@]3(C)[C@H](CC[C@@H]4[C@@]5(C)CC[C@H](OC(=O)CC(C)(C)C(=O)O)C(C)(C)[C@@H]5CC[C@]43C)[C@@H]12` [3-O-(3',3'-dimethylsuccinyl)-28-O-(2",2"-dimethylsuccinyl)betulin], the half-maximal effective concentration (EC50) in data set [2] was 0.00087 µM.

Consider `C=C(C)[C@@H]1CC[C@]2(CO)CC[C@]3(C)[C@H](CC[C@@H]4[C@@]5(C)CC[C@H](O)C(C)(C)[C@@H]5CC[C@]43C)[C@@H]12` [Item 1, lup-20(29)-ene-3β,28-diol], for which the “activity against HIV-1” value in data set [3] is recorded as “weak activity”.

By IC50 is commonly meant the concentration at which inhibition is half-maximal. Consider `C=C(C)[C@@H]1CC[C@]2(CO)CC[C@]3(C)[C@H](CC[C@@H]4[C@@]5(C)CC[C@H](O)C(C)(C)[C@@H]5CC[C@]43C)[C@@H]12` [Item 1], for which, in data set [4], the IC50 entry is “NO”.

Take `C=C(C)[C@@H]1CC[C@]2(C(=O)O)CC[C@]3(C)[C@H](CC[C@@H]4[C@@]5(C)CC[C@H](O)C(C)(C)[C@@H]5CC[C@]43C)[C@@H]12` [Item 2, (3β)-3-hydroxy-lup-20(29)-en-28-oic acid]: the EC50 in data set [5] was 1.6 µM. The “activity against HIV-1” value in data set [3] is recorded as “weak activity”.

One may read the CC50 as the concentration that lowers cell viability or growth by half. Read a high CC50 as lower toxicity to the cells. `C=C(C)[C@@H]1CC[C@]2(C(=O)O)CC[C@]3(C)[C@H](CC[C@@H]4[C@@]5(C)CC[C@H](O)C(C)(C)[C@@H]5CC[C@]43C)[C@@H]12` [Item 2] had a CC50 in data set [6] of 5 µM.

Consider `C=C(C)[C@@H]1CC[C@]2(C(=O)O)CC[C@]3(C)[C@H](CC[C@@H]4[C@@]5(C)CC[C@H](OC(=O)CC(C)(C)C(=O)O)C(C)(C)[C@@H]5CC[C@]43C)[C@@H]12` [Item 3], for which the midpoint of inhibition in data set [4] (Human immunodeficiency virus 1, CEM-T4), the IC50, lay at 0.03 µM.

The molecule `C=C(CP(=O)(OCC)OCC)[C@@H]1CC[C@]2(C(=O)O)CC[C@]3(C)[C@H](CC[C@@H]4[C@@]5(C)CC[C@H](OC(=O)CC(C)(C)C(=O)O)C(C)(C)[C@@H]5CC[C@]43C)[C@@H]12` [Item 5] showed a CC50 in data set [6] above 69 µM.

In data set [6], `C=C(CP(=O)(OCC)OCC)[C@@H]1CC[C@]2(C(=O)O)CC[C@]3(C)[C@H](CC[C@@H]4[C@@]5(C)CC[C@H](OC(=O)CCC(C)(C)C(=O)O)C(C)(C)[C@@H]5CC[C@]43C)[C@@H]12` [Item 6] had a CC50 above 68 µM.

Regarding `C=C(CP(=O)(OCC)OCC)[C@@H]1CC[C@]2(C(=O)O)CC[C@]3(C)[C@H](CC[C@@H]4[C@@]5(C)CC[C@H](OC(=O)CC(C)(C)CC(=O)O)C(C)(C)[C@@H]5CC[C@]43C)[C@@H]12` [Item 7], in data set [6], the CC50 was above 68 µM.

In turn, `CCOP(=O)(C=C(C)[C@@H]1CC[C@]2(C(=O)O)CC[C@]3(C)[C@H](CC[C@@H]4[C@@]5(C)CC[C@H](OC(=O)CC(C)(C)C(=O)O)C(C)(C)[C@@H]5CC[C@]43C)[C@@H]12)OCC` [Item 9] gave a CC50 in data set [6] above 69 µM.

On to `CCOP(=O)(C=C(C)[C@@H]1CC[C@]2(C(=O)O)CC[C@]3(C)[C@H](CC[C@@H]4[C@@]5(C)CC[C@H](OC(=O)CCC(C)(C)C(=O)O)C(C)(C)[C@@H]5CC[C@]43C)[C@@H]12)OCC` [Item 10], for which the CC50 in data set [6] is above 68 µM.

Regarding `CCOP(=O)(C=C(C)[C@@H]1CC[C@]2(C(=O)O)CC[C@]3(C)[C@H](CC[C@@H]4[C@@]5(C)CC[C@H](OC(=O)CC(C)(C)CC(=O)O)C(C)(C)[C@@H]5CC[C@]43C)[C@@H]12)OCC` [Item 11], the half-maximal cytotoxic concentration (CC50) in data set [6] is above 68 µM.

In the case of `Cc1cn([C@H]2C[C@H](N=[N+]=[N-])[C@@H](CO)O2)c(=O)[nH]c1=O` [Item 12], the half-maximal cytotoxic concentration (CC50) in data set [6] is above 280 µM.

Regarding `C=C(C)[C@@H]1CC[C@]2(C(=O)O)CC[C@]3(C)[C@H](CC[C@@H]4[C@@]5(C)CCC(=O)C(C)(C)[C@@H]5CC[C@]43C)[C@@H]12` [betulonic acid], in data set [3], the “activity against HIV-1” value is “weak activity”.

Consider `CC(C)[C@@H]1CC[C@]2(C(=O)O)CC[C@]3(C)C(CCC4[C@@]5(C)CC[C@H](O)C(C)(C)C5CC[C@]43C)C12` (stereo partly drawn) [dihydrobetulinic acid], for which the concentration for a half-maximal effect (EC50) in data set [5] is 0.9 µM.
